Assay results: patent US20230381193A1, “METHODS FOR THE TREATMENT OF CHILDHOOD-ONSET FLUENCY DISORDER” (Noema Pharma AG, priority 2021, published 2023)
In brackets after ≈: the same amount, converted by molar mass. Read-outs that look alike come from different tables or passages of the source.

Experiments:
SD rats [1] = test: Oral glucose tolerance test, third study (sub-chronic, 8 days, alone or in combination); assay type: in vivo, rat
Protocol: The third study evaluated sub-chronic (8 days) effects of the compound of Formula I alone or in combination with Olanzapine. […] The insulin was measured at time 0 only.

SD rats [2] = test: Oral glucose tolerance test, first study (acute treatment); conditions: 3 and 10 mg/kg
Protocol: The study was conducted on 10-week male SD rats fed with chow diet. The glucose challenge was performed 1 hour post last treatment. The glucose load was done per os per gavage (2 g/kg BW), and the formulation was made in saline. The blood glucose and plasma insulin were measured at 0 (before challenge), +15, +30, +60 and +120 minutes. Blood was sampled in EDTA coated tubes, and the blood samples were kept on ice until centrifuged at 4° C. ELISA for Insulin (Mercodia, Uppsala Sweden) and Fluorometric for measuring glucose (AccuCheck System) were used for the analysis. Data Analysis was done using the software JMP for Windows (Version 5.01, SAS institute Inc., SAS Campus Drive, Cary, NC 27513). Analysis of Variance ANOVA (alpha 0.05 and 0.01) followed by Dunnett's test (comparison vs. Control).

SD rats [3] = test: Oral glucose tolerance test, second study (acute treatment); assay type: in vivo, rat; conditions: 10 mg/kg; for Glucose tolerance (oral glucose tolerance test): glucose 2 g/kg per os 1 hour post treatment
Protocol: The second study assessed the impact of acute treatment with the compound of Formula I. The study was conducted on 9-week male SD rats, which were fed with chow diet.

[4] = Solubility of the crystalline form; assay type: physicochemical; conditions: for solubility: thermodynamic from solid
Protocol: Solubility in simulated gastric fluid (SGF), fasted state simulated intestinal fluid (FaSSIF), and fed state simulated intestinal fluid (FeSSIF) was 0.019 mg/ml, 0.006 mg/mL, and 0.022 mg/mL, respectively. Solubility increased 50-100-fold in the presence of surfactants (e.g., Tween-80, sodium dodecyl sulfate, dioctyl sulfosuccinate, or Pluronic F68) and cyclodextrins; however it was still rather low.

[5] = Preliminary forced degradation study (acidic, basic, oxidative, photolytic stress; excipient compatibility); assay type: physicochemical
Protocol: Stability: Preliminary forced degradation study of the crystalline form of the free base of the compound of Formula I in acidic, basic, oxidative, and photolytic stress conditions was conducted to investigate the viability of the crystalline form in various stress conditions. Since the solubility of the compound of Formula I was low in the standard solvent ethanol, ethanol was replaced by N-methyl-2-pyrrolidone (NMP).
The crystalline form of the free base of the compound of Formula I was stable for up to 8 days in solid state at 80° C. and in solution at pH 3 to pH 7 at RT. […] The crystalline form was stable after exposure to light in solid state.

[6] = Stability in suspension vehicle and parenteral formulation; assay type: physicochemical; conditions: 0.5% HPC/1% Tween 80, up to 5 weeks at RT
Protocol: For parenteral administration, a 30% Kleptose formulation (1.5 mg/ml, physiologic osmolality, pH 6.2), with a stability of at least 4 weeks at 40° C. was developed.

[7] = Thermodynamic stability of crystalline form; assay type: physicochemical; conditions: at least between 20° C. and 60° C.
[8] = Preliminary solid state stability (UPLC analysis); assay type: physicochemical
Protocol: A defined amount of the crystalline form of the free base of the compound of Formula I (0.2-0.8 mg) was weighed into a 1.8 mL HPLC vial and stored open (75% RH) or closed (ambient) at the temperature and the time indicated. After incubation, compound was dissolved in 1-1.5 mL NMP to a final concentration of 0.2-0.5 mg/mL and submitted to UPLC analysis (254 nm).

[9] = test system: adult male patients with COFD; test: Study A: open-label Phase IIa 6-week study of safety and efficacy in COFD; assay type: in vivo, human; conditions: 5 to 15 mg, once daily, oral; study design criterion
Protocol: Provided below is an open-label, Phase IIa, multi-center, 6-week prospective study to evaluate the safety and efficacy of the compound of Formula I at a daily dose range of 5 mg to 15 mg in adult male patients with COFD.

With Cc1cc2c(s1)Nc1ccccc1N=C2N1CCN(C)CC1 [Olanzapine, 2-Methyl-4-(4-methyl-1-piperazinyl)-10H-thieno[2,3-b][1,5]benzodiazepine] as the compound, how does the “Glucose tolerance (oral glucose tolerance test)” value (from here on “Glucose tolerance”) (SD rats [1]; acute treatment, 10 mg/kg, glucose 2 g/kg per os) read?
The value was “glucose intolerance”.

And the Fasting blood glucose (SD rats [1]; acute treatment, 10 mg/kg, male SD rats)?
Its Fasting blood glucose is “increase”.

And the “Glucose tolerance” value (SD rats [2]; glucose 2 g/kg per os 1 hour post treatment)?
Its value is “dose-dependent glucose intolerance”.

What about the Fasting blood glucose (SD rats [2]; male SD rats) of the same compound?
Its Fasting blood glucose is “dose-dependent increase”.

What about the Fasting insulin (SD rats [2]; male SD rats) of the same compound?
Its Fasting insulin is “dose-dependent increase”.

And the “Glucose tolerance” value (SD rats [3])?
Its value is “glucose intolerance”.

What about the Fasting blood glucose (SD rats [3]; male SD rats) of the same compound?
The Fasting blood glucose was “increase”.

Which results are given for Cn1ncc(C(=O)N2CCOCC2)c1C(=O)Nc1ccn2nc(-c3ccccc3)nc2c1 [1-methyl-4-(morpholine-4-carbonyl)-N-(2-phenyl[1,2,4]triazolo[1,5-a]pyridin-7-yl)-1H-pyrazole-5-carboxamide]?
solubility ([4]; aqueous solutions, 22 °C, aqueous buffer, pH>3, read-out: Solubility in aqueous solutions): < 4 µg/mL; solubility ([4]; fasted state simulated intestinal fluid (FaSSIF), 22 °C, fassif, read-out: Solubility in fasted state simulated intestinal fluid (FaSSIF)): 6 µg/mL (≈ 13.9 µM); solubility ([4]; fed state simulated intestinal fluid (FeSSIF), 22 °C, fessif, read-out: Solubility in fed state simulated intestinal fluid (FeSSIF)): 22 µg/mL (≈ 51 µM); Solubility increase ([4]; in the presence of surfactants (e.g., Tween-80, sodium dodecyl sulfate, dioctyl sulfosuccinate, Pluronic F68) and cyclodextrins): 50-100 fold; solubility ([4]; organic solvents, organic solvent or mixture, ambient temperature (22° C.), read-out: Solubility in most of the tested organic solvents): < 50000 µg/mL; solubility ([4]; simulated gastric fluid (SGF), 22 °C, simulated gastric fluid, read-out: Solubility in simulated gastric fluid (SGF)): 19 µg/mL (≈ 44 µM); Excipient compatibility (CompaS assay) [5]: compatible with almost all excipients; Stability towards oxidation ([5]; 1 day): stable; Stability towards daylight ([5]; in solution): stable; Stability in the Suntest ([5]; in solution, time dependent): moderately stable to unstable; Stability in solution ([5]; pH 3 to pH 7 at RT): stable; Stability in solution at higher or lower pH ([5]; pH above 7 or below 3): degradation was observed; Stability towards oxidation ([5]; prolonged exposure): some sensitivity; Stability after exposure to light ([5]; solid state): stable; Stability in solid state ([5]; up to 8 days, 80° C.): stable; Particle growth and hydrate formation in suspension vehicle [6]: only minor particle growth and no hydrate formation; Stability in suspension vehicle [6]: stable; Thermodynamic stability [7]: thermodynamically stable; UPLC analysis (Area % main peak) ([8]; 4 w 60° C.): 100 Area %; UPLC analysis (Area % main peak) ([8]; 4 w, 4° C.): 100 Area %; UPLC analysis (Area % main peak) ([8]; 4 w, 40° C.): 100 Area %; UPLC analysis (Area % main peak) ([8]; 4 w, 40° C., 75% RH): 100 Area %; UPLC analysis (Area % main peak) ([8]; 4 w, RT): 100 Area %; Time stable in solid state ([8]; 40-60° C.): at least 4 weeks; UPLC analysis (Area % main peak) ([8]; 1 h, 80° C.): 100 Area %; UPLC analysis (Area % main peak) ([8]; 1 d, 80° C.): 100 Area %; UPLC analysis (Area % main peak) ([8]; 8 d, 80° C.): 100 Area %; Degradation products ([8]; solid state, various temperatures): < 0.5%

Which “Key secondary: Subject-rated Self Assessment of Stuttering” value [9] does the source give for Cn1ncc(C(=O)N2CCOCC2)c1C(=O)Nc1ccn2nc(-c3ccccc3)nc2c1 [compound of Formula I, 1-methyl-4-(morpholine-4-carbonyl)-N-(2-phenyl[1,2,4]triazolo[1,5-a]pyridin-7-yl)-1H-pyrazole-5-carboxamide] here?
Its value is “Key secondary: Superior efficacy on the Subject-rated Self”.

And the “Safety: effect on blood glucose and lipids” value [9]?
The value was “No or minimal effect on blood glucose and lipids”.

What about the “Safety: patients with significant weight gain (greater than 7% versus baseline)” value [9] of the same compound?
Its value is “Less than 5% of patients with significant weight gain (greater”.

What about the “Secondary: percent of patients with stuttering freedom” value [9] of the same compound?
The value was “Secondary: Superior percent of patients with stuttering”.

And the Fasting blood glucose (SD rats [1]; repeated treatment, 8 days, 0.3 mg/kg)?
The Fasting blood glucose was “no change”.

And the “Glucose tolerance” value (SD rats [1]; repeated treatment, 8 days, 0.3 mg/kg, alone)?
The value was “slight glucose tolerance improvement”.

And the “Glucose tolerance” value (SD rats [3])?
The value was “did not induce any change”.
